Results as given in the NIST ThermoML archive (doi:10.1021/je8007759).
± gives the expanded uncertainty stated by the source.

Test: xn = mol fraction of the nth substance listed

`CC1CCC(=O)O1` (stereo not given) [γ-valerolactone] + O=C=O gave a mass density (327.9 K, 12360 kPa, Fluid (supercritical or subcritical phases), Pycnometric method, x1 = 0.1) of 876 ± 5 kg/m3, a mass density (327.9 K, 12500 kPa, Fluid (supercritical or subcritical phases), Pycnometric method, x1 = 0.05) of 784 ± 6 kg/m3 and a mass density (327.9 K, 12510 kPa, Fluid (supercritical or subcritical phases), Pycnometric method, x1 = 0.025) of 726 ± 6 kg/m3. For the same compound, the mass density (327.9 K, 12630 kPa, Fluid (supercritical or subcritical phases), Pycnometric method, x1 = 0.01) was 657 ± 8 kg/m3, the mass density (327.9 K, 12640 kPa, Fluid (supercritical or subcritical phases), Pycnometric method, x1 = 0.15) was 937 ± 4 kg/m3 and the mass density (327.9 K, 12700 kPa, Fluid (supercritical or subcritical phases), Pycnometric method, x1 = 0.05) was 790 ± 5 kg/m3. For the same compound, the mass density (327.9 K, 12720 kPa, Fluid (supercritical or subcritical phases), Pycnometric method, x1 = 0.025) was 735 ± 8 kg/m3, the mass density (327.9 K, 12740 kPa, Fluid (supercritical or subcritical phases), Pycnometric method, x1 = 0.1) was 882 ± 5 kg/m3 and the mass density (327.9 K, 12920 kPa, Fluid (supercritical or subcritical phases), Pycnometric method, x1 = 0.05) was 795 ± 5 kg/m3. For the same compound, the mass density (327.9 K, 13010 kPa, Fluid (supercritical or subcritical phases), Pycnometric method, x1 = 0.025) was 745 ± 8 kg/m3, the mass density (327.9 K, 13120 kPa, Fluid (supercritical or subcritical phases), Pycnometric method, x1 = 0.15) was 941 ± 4 kg/m3 and the mass density (327.9 K, 13130 kPa, Fluid (supercritical or subcritical phases), Pycnometric method, x1 = 0.1) was 888 ± 4 kg/m3. It also gave a mass density (327.9 K, 13160 kPa, Fluid (supercritical or subcritical phases), Pycnometric method, x1 = 0.05) of 800 ± 5 kg/m3, a mass density (327.9 K, 13320 kPa, Fluid (supercritical or subcritical phases), Pycnometric method, x1 = 0.025) of 755 ± 6 kg/m3 and a mass density (327.9 K, 13370 kPa, Fluid (supercritical or subcritical phases), Pycnometric method, x1 = 0.1) of 891 ± 4 kg/m3. It also gave a mass density (327.9 K, 13410 kPa, Fluid (supercritical or subcritical phases), Pycnometric method, x1 = 0.05) of 805 ± 5 kg/m3, a mass density (327.9 K, 13520 kPa, Fluid (supercritical or subcritical phases), Pycnometric method, x1 = 0.15) of 943 ± 4 kg/m3 and a mass density (327.9 K, 13640 kPa, Fluid (supercritical or subcritical phases), Pycnometric method, x1 = 0.1) of 894 ± 5 kg/m3. For the same compound, the mass density (327.9 K, 13660 kPa, Fluid (supercritical or subcritical phases), Pycnometric method, x1 = 0.025) was 765 ± 6 kg/m3, the mass density (327.9 K, 13700 kPa, Fluid (supercritical or subcritical phases), Pycnometric method, x1 = 0.05) was 811 ± 5 kg/m3 and the mass density (327.9 K, 13980 kPa, Fluid (supercritical or subcritical phases), Pycnometric method, x1 = 0.15) was 947 ± 4 kg/m3. It also gave a mass density (327.9 K, 14010 kPa, Fluid (supercritical or subcritical phases), Pycnometric method, x1 = 0.05) of 817 ± 5 kg/m3, a mass density (327.9 K, 14060 kPa, Fluid (supercritical or subcritical phases), Pycnometric method, x1 = 0.025) of 776 ± 5 kg/m3 and a mass density (327.9 K, 14180 kPa, Fluid (supercritical or subcritical phases), Pycnometric method, x1 = 0.1) of 900 ± 4 kg/m3. For the same compound, the mass density (327.9 K, 14330 kPa, Fluid (supercritical or subcritical phases), Pycnometric method, x1 = 0.05) was 823 ± 5 kg/m3, the mass density (327.9 K, 14440 kPa, Fluid (supercritical or subcritical phases), Pycnometric method, x1 = 0.15) was 949 ± 4 kg/m3 and the mass density (327.9 K, 14700 kPa, Fluid (supercritical or subcritical phases), Pycnometric method, x1 = 0.05) was 829 ± 5 kg/m3. It also gave a mass density (327.9 K, 14780 kPa, Fluid (supercritical or subcritical phases), Pycnometric method, x1 = 0.1) of 907 ± 4 kg/m3, a mass density (327.9 K, 14900 kPa, Fluid (supercritical or subcritical phases), Pycnometric method, x1 = 0.15) of 952 ± 4 kg/m3 and a mass density (327.9 K, 15080 kPa, Fluid (supercritical or subcritical phases), Pycnometric method, x1 = 0.05) of 835 ± 5 kg/m3. For the same compound, the mass density (327.9 K, 15410 kPa, Fluid (supercritical or subcritical phases), Pycnometric method, x1 = 0.1) was 913 ± 4 kg/m3, the mass density (327.9 K, 15460 kPa, Fluid (supercritical or subcritical phases), Pycnometric method, x1 = 0.15) was 956 ± 4 kg/m3 and the mass density (327.9 K, 15940 kPa, Fluid (supercritical or subcritical phases), Pycnometric method, x1 = 0.15) was 959 ± 4 kg/m3. The mass density (327.9 K, 16050 kPa, Fluid (supercritical or subcritical phases), Pycnometric method, x1 = 0.1) was 919 ± 4 kg/m3, the mass density (327.9 K, 16480 kPa, Fluid (supercritical or subcritical phases), Pycnometric method, x1 = 0.15) was 962 ± 4 kg/m3 and the mass density (327.9 K, 17080 kPa, Fluid (supercritical or subcritical phases), Pycnometric method, x1 = 0.15) was 965 ± 4 kg/m3. It also gave a mass density (327.9 K, Gas, high pressure variable cell, x1 = 0.01) of 496 ± 4 kg/m3, a mass density (327.9 K, Gas, high pressure variable cell, x1 = 0.025) of 660 ± 4 kg/m3 and a mass density (327.9 K, Gas, high pressure variable cell, x1 = 0.05) of 753 ± 4 kg/m3. For the same compound, the mass density (327.9 K, Liquid, high pressure variable cell, x1 = 0.1) was 863 ± 4 kg/m3, the mass density (327.9 K, Liquid, high pressure variable cell, x1 = 0.15) was 925 ± 4 kg/m3 and the mass density (332.8 K, 12270 kPa, Fluid (supercritical or subcritical phases), Pycnometric method, x1 = 0.025) was 651 ± 9 kg/m3. For the same compound, the mass density (332.8 K, 12280 kPa, Fluid (supercritical or subcritical phases), Pycnometric method, x1 = 0.025) was 652 ± 8 kg/m3, the mass density (332.8 K, 12340 kPa, Fluid (supercritical or subcritical phases), Pycnometric method, x1 = 0.025) was 655 ± 9 kg/m3 and the mass density (332.8 K, 12390 kPa, Fluid (supercritical or subcritical phases), Pycnometric method, x1 = 0.025) was 659 ± 8 kg/m3. It also gave a mass density (332.8 K, 12460 kPa, Fluid (supercritical or subcritical phases), Pycnometric method, x1 = 0.025) of 663 ± 8 kg/m3, a mass density (332.8 K, 12530 kPa, Fluid (supercritical or subcritical phases), Pycnometric method, x1 = 0.025) of 667 ± 6 kg/m3 and a mass density (332.8 K, 12600 kPa, Fluid (supercritical or subcritical phases), Pycnometric method, x1 = 0.025) of 671 ± 7 kg/m3. For the same compound, the mass density (332.8 K, 12680 kPa, Fluid (supercritical or subcritical phases), Pycnometric method, x1 = 0.025) was 675 ± 6 kg/m3, the mass density (332.8 K, 12840 kPa, Fluid (supercritical or subcritical phases), Pycnometric method, x1 = 0.025) was 683 ± 9 kg/m3 and the mass density (332.8 K, 12980 kPa, Fluid (supercritical or subcritical phases), Pycnometric method, x1 = 0.025) was 690 ± 9 kg/m3. The mass density (332.8 K, 13130 kPa, Fluid (supercritical or subcritical phases), Pycnometric method, x1 = 0.025) was 696 ± 9 kg/m3, the mass density (332.8 K, 13420 kPa, Fluid (supercritical or subcritical phases), Pycnometric method, x1 = 0.025) was 710 ± 8 kg/m3 and the mass density (332.8 K, 13670 kPa, Fluid (supercritical or subcritical phases), Pycnometric method, x1 = 0.025) was 718 ± 9 kg/m3. It also gave a mass density (332.8 K, 13940 kPa, Fluid (supercritical or subcritical phases), Pycnometric method, x1 = 0.025) of 728 ± 6 kg/m3, a mass density (332.8 K, 14270 kPa, Fluid (supercritical or subcritical phases), Pycnometric method, x1 = 0.025) of 738 ± 5 kg/m3 and a mass density (332.8 K, 14540 kPa, Fluid (supercritical or subcritical phases), Pycnometric method, x1 = 0.025) of 744 ± 5 kg/m3. The mass density (332.8 K, 14820 kPa, Fluid (supercritical or subcritical phases), Pycnometric method, x1 = 0.025) was 752 ± 5 kg/m3, the mass density (332.8 K, 15190 kPa, Fluid (supercritical or subcritical phases), Pycnometric method, x1 = 0.025) was 761 ± 5 kg/m3 and the mass density (332.8 K, Gas, high pressure variable cell, x1 = 0.025) was 649 ± 5 kg/m3. The mass density (332.9 K, 11320 kPa, Fluid (supercritical or subcritical phases), Pycnometric method, x1 = 0.01) was 487 ± 13 kg/m3, the mass density (332.9 K, 11330 kPa, Fluid (supercritical or subcritical phases), Pycnometric method, x1 = 0.01) was 488 ± 13 kg/m3 and the mass density (332.9 K, 11340 kPa, Fluid (supercritical or subcritical phases), Pycnometric method, x1 = 0.01) was 490 ± 12 kg/m3. It also gave a mass density (332.9 K, 11350 kPa, Fluid (supercritical or subcritical phases), Pycnometric method, x1 = 0.01) of 491 ± 12 kg/m3, a mass density (332.9 K, 11370 kPa, Fluid (supercritical or subcritical phases), Pycnometric method, x1 = 0.01) of 493 ± 12 kg/m3 and a mass density (332.9 K, 11380 kPa, Fluid (supercritical or subcritical phases), Pycnometric method, x1 = 0.01) of 494 ± 12 kg/m3. The mass density (332.9 K, 11400 kPa, Fluid (supercritical or subcritical phases), Pycnometric method, x1 = 0.01) was 496 ± 12 kg/m3, the mass density (332.9 K, 11410 kPa, Fluid (supercritical or subcritical phases), Pycnometric method, x1 = 0.01) was 497 ± 12 kg/m3 and the mass density (332.9 K, 11420 kPa, Fluid (supercritical or subcritical phases), Pycnometric method, x1 = 0.01) was 498 ± 11 kg/m3. It also gave a mass density (332.9 K, 11440 kPa, Fluid (supercritical or subcritical phases), Pycnometric method, x1 = 0.01) of 500 ± 12 kg/m3, a mass density (332.9 K, 11450 kPa, Fluid (supercritical or subcritical phases), Pycnometric method, x1 = 0.01) of 501 ± 5 kg/m3 and a mass density (332.9 K, 11470 kPa, Fluid (supercritical or subcritical phases), Pycnometric method, x1 = 0.01) of 503 ± 11 kg/m3. It also gave a mass density (332.9 K, 11490 kPa, Fluid (supercritical or subcritical phases), Pycnometric method, x1 = 0.01) of 506 ± 15 kg/m3, a mass density (332.9 K, 11520 kPa, Fluid (supercritical or subcritical phases), Pycnometric method, x1 = 0.01) of 509 ± 8 kg/m3 and a mass density (332.9 K, 11560 kPa, Fluid (supercritical or subcritical phases), Pycnometric method, x1 = 0.01) of 511 ± 11 kg/m3. For the same compound, the mass density (332.9 K, 11600 kPa, Fluid (supercritical or subcritical phases), Pycnometric method, x1 = 0.01) was 515 ± 11 kg/m3, the mass density (332.9 K, 11630 kPa, Fluid (supercritical or subcritical phases), Pycnometric method, x1 = 0.01) was 518 ± 11 kg/m3 and the mass density (332.9 K, 11660 kPa, Fluid (supercritical or subcritical phases), Pycnometric method, x1 = 0.01) was 521 ± 11 kg/m3. For the same compound, the mass density (332.9 K, 11700 kPa, Fluid (supercritical or subcritical phases), Pycnometric method, x1 = 0.01) was 524 ± 11 kg/m3, the mass density (332.9 K, 11730 kPa, Fluid (supercritical or subcritical phases), Pycnometric method, x1 = 0.01) was 527 ± 11 kg/m3 and the mass density (332.9 K, 11770 kPa, Fluid (supercritical or subcritical phases), Pycnometric method, x1 = 0.01) was 531 ± 10 kg/m3. For the same compound, the mass density (332.9 K, 11810 kPa, Fluid (supercritical or subcritical phases), Pycnometric method, x1 = 0.01) was 534 ± 24 kg/m3, the mass density (332.9 K, 11850 kPa, Fluid (supercritical or subcritical phases), Pycnometric method, x1 = 0.01) was 537 ± 10 kg/m3 and the mass density (332.9 K, 11890 kPa, Fluid (supercritical or subcritical phases), Pycnometric method, x1 = 0.01) was 540 ± 9 kg/m3. It also gave a mass density (332.9 K, 11940 kPa, Fluid (supercritical or subcritical phases), Pycnometric method, x1 = 0.01) of 543 ± 25 kg/m3.
